Reference: ChEMBL document CHEMBL2029327, “Synthetic menthyl α/β-(1→6)-diglucopyranosides-induced cell death in human leukemia cells is dependent on caspases” (Bioorg Med Chem Lett, 2012)
Active and inactive are the calls of the source. The rule behind the calls is not given here.

Experiments:
HL-60 [1] = assay: Induction of apoptosis in human HL60 cells assessed as decrease in ROS level up to 12 hrs by H2-DCF-DA dye-based flow cytometric analysis; type: functional, cell-based
MOLT-3 [2] = assay: Induction of apoptosis in human MOLT3 cells assessed as […] hydrolysis of chromatin at 10 uM after 24 hrs by agarose gel electrophoretic analysis; type: functional, cell-based
U-937 [3] = assay: Induction of apoptosis in human U937 cells assessed as increase in caspase 9-mediated cleavage of LEHD-pNA at 30 uM after 24 hrs; type: functional, cell-based
MOLT-3 [4] = assay: Cytotoxicity against human MOLT3 cells assessed as reduction in cell number at 10 uM after 24 hrs by inverted phase-contrast microscopic analysis; type: functional, cell-based
HL-60 [5] = assay: Induction of apoptosis in human HL60 cells assessed as decrease in Bid protein level at 10 to 30 uM after 24 hrs by Western blot analysis; type: functional, cell-based
HL-60 [6] = assay: Induction of apoptosis in human HL60 cells assessed as increase in hypodiploid cells at 30 uM after 24 hrs by propidium iodide staining-based flow cytometric analysis in presence of 100 uM caspase inhibition Z-VAD-fmk; type: functional, cell-based
MOLT-3 [7] = assay: Cytotoxicity against human MOLT3 cells after 72 hrs by MTT assay; type: functional, cell-based; conditions: for IC50: MOLT-3, 72 h
HL-60 [8] = assay: Induction of apoptosis in human HL60 cells assessed as increase in caspase 8-mediated cleavage of IETD-pNA at 30 uM after 24 hrs; type: functional, cell-based
HL-60 [9] = assay: Cytotoxicity against human HL60 cells assessed as reduction in cell number at 10 uM after 24 hrs by inverted phase-contrast microscopic analysis; type: functional, cell-based
MOLT-3 [10] = assay: Induction of apoptosis in human MOLT3 cells assessed as increase in chromatin condensation at 10 uM after 24 hrs by Hoechst staining-based flow cytometric analysis; type: functional, cell-based
HL-60 [11] = assay: Cell cycle in human HL60 cells at 30 uM after 24 hrs by flow cytometric analysis in presence of 100 uM caspase inhibition Z-VAD-fmk; type: functional, cell-based
HL-60 [12] = assay: Induction of apoptosis in human HL60 cells assessed as increase in chromatin condensation at 10 uM after 24 hrs by Hoechst staining-based flow cytometric analysis; type: functional, cell-based
MCF7 [13] = assay: Cytotoxicity against human MCF7 cells assessed as morphological changes at 10 uM after 24 hrs by inverted phase-contrast microscopic analysis; type: functional, cell-based
U-937 [14] = assay: Induction of apoptosis in human U937 cells assessed as cleavage of procaspase 7 at 10 to 30 uM after 24 hrs by Western blot analysis; type: functional, cell-based
U-937 [15] = assay: Induction of apoptosis in human U937 cells assessed as decrease in Bid protein level at 10 to 30 uM after 24 hrs by Western blot analysis; type: functional, cell-based
HL-60 [16] = assay: Induction of apoptosis in human HL60 cells assessed as cleavage of procaspase 6 at 10 to 30 uM after 24 hrs by Western blot analysis; type: functional, cell-based
HL-60 [17] = assay: Induction of apoptosis in human HL60 cells assessed as increase in caspase 9-mediated cleavage of LEHD-pNA at 30 uM after 24 hrs; type: functional, cell-based
U-937 [18] = assay: Induction of apoptosis in human U937 cells assessed as cleavage of procaspase 6 at 10 to 30 uM after 24 hrs by Western blot analysis; type: functional, cell-based
MOLT-3 [19] = assay: Induction of apoptosis in human MOLT3 cells assessed as increase in caspase 3/7-mediated cleavage of DEVD-pNA at 30 uM after 24 hrs relative to control; type: functional
U-937 [20] = assay: Induction of apoptosis in human U937 cells assessed as increase in apoptotic cells at 30 uM after 24 hrs by propidium iodide staining-based flow cytometric analysis relative to control; type: functional
MOLT-3 [21] = assay: Induction of apoptosis in human MOLT3 cells assessed as increase in caspase 8-mediated cleavage of IETD-pNA at 30 uM after 24 hrs; type: functional, cell-based
U-937 [22] = assay: Cytotoxicity against human U937 cells after 72 hrs by MTT assay; type: functional, cell-based; conditions: for IC50: U-937, 72 h
U-937 [23] = assay: Induction of apoptosis in human U937 cells assessed as increase in Bax protein level at 10 to 30 uM after 24 hrs by Western blot analysis; type: functional, cell-based
HL-60 [24] = assay: Induction of apoptosis in human HL60 cells assessed as increase in Bax protein level at 10 to 30 uM after 24 hrs by Western blot analysis; type: functional, cell-based
U-937 [25] = assay: Induction of apoptosis in human U937 cells assessed as release of cytochrome c release from mitochondria at 10 to 30 uM after 24 hrs by Western blot analysis; type: functional, cell-based
HL-60 [26] = assay: Induction of apoptosis in human HL60 cells assessed as change in Bcl-2 protein level at 10 to 30 uM after 24 hrs by Western blot analysis; type: functional, cell-based
U-937 [27] = assay: Induction of apoptosis in human U937 cells assessed as increase in caspase 8-mediated cleavage of IETD-pNA at 30 uM after 24 hrs; type: functional, cell-based
U-937 [28] = assay: Induction of apoptosis in human U937 cells assessed as cleavage of procaspase 9 at 10 to 30 uM after 24 hrs by Western blot analysis; type: functional, cell-based
HL-60 [29] = assay: Induction of apoptosis in human HL60 cells assessed as […] hydrolysis of chromatin at 10 uM after 24 hrs by agarose gel electrophoretic analysis; type: functional, cell-based
U-937 [30] = assay: Induction of apoptosis in human U937 cells assessed as […] hydrolysis of chromatin at 10 uM after 24 hrs by agarose gel electrophoretic analysis; type: functional, cell-based
MCF7 [31] = assay: Cytotoxicity against human MCF7 cells after 72 hrs by MTT assay; type: functional, cell-based; conditions: for IC50: MCF7, 72 h
HL-60 [32] = assay: Cytotoxicity against human HL60 cells after 72 hrs by MTT assay; type: functional, cell-based; conditions: for IC50: HL-60, 72 h
HL-60 [33] = assay: Induction of apoptosis in human HL60 cells assessed as increase in caspase 3/7-mediated cleavage of DEVD-pNA at 30 uM after 24 hrs relative to control; type: functional
HL-60 [34] = assay: Induction of apoptosis in human HL60 cells assessed as increase in apoptotic cells at 30 uM after 24 hrs by propidium iodide staining-based flow cytometric analysis relative to control; type: functional
U-937 [35] = assay: Induction of apoptosis in human U937 cells assessed as increase in chromatin condensation at 10 uM after 24 hrs by Hoechst staining-based flow cytometric analysis; type: functional, cell-based
U-937 [36] = assay: Cytotoxicity against human U937 cells assessed as morphological changes at 10 uM after 24 hrs by inverted phase-contrast microscopic analysis; type: functional, cell-based
HL-60 [37] = assay: Induction of apoptosis in human HL60 cells assessed as cleavage of procaspase 9 at 10 to 30 uM after 24 hrs by Western blot analysis; type: functional, cell-based
MOLT-3 [38] = assay: Cytotoxicity against human MOLT3 cells assessed as morphological changes at 10 uM after 24 hrs by inverted phase-contrast microscopic analysis; type: functional, cell-based
HL-60 [39] = assay: Cytotoxicity against human HL60 cells assessed as morphological changes at 10 uM after 24 hrs by inverted phase-contrast microscopic analysis; type: functional, cell-based
U-937 [40] = assay: Induction of apoptosis in human U937 cells assessed as increase in caspase 3/7-mediated cleavage of DEVD-pNA at 30 uM after 24 hrs relative to control; type: functional
MOLT-3 [41] = assay: Induction of apoptosis in human MOLT3 cells assessed as increase in caspase 9-mediated cleavage of LEHD-pNA at 30 uM after 24 hrs; type: functional, cell-based
U-937 [42] = assay: Induction of apoptosis in human U937 cells assessed as change in Bcl-2 protein level at 10 to 30 uM after 24 hrs by Western blot analysis; type: functional, cell-based
HL-60 [43] = assay: Induction of apoptosis in human HL60 cells assessed as cleavage of procaspase 7 at 10 to 30 uM after 24 hrs by Western blot analysis; type: functional, cell-based
HL-60 [44] = assay: Induction of apoptosis in human HL60 cells assessed as release of cytochrome c release from mitochondria at 10 to 30 uM after 24 hrs by Western blot analysis; type: functional, cell-based
HL-60 [45] = assay: Induction of apoptosis in human HL60 cells assessed as cleavage of procaspase 3 at 10 to 30 uM after 24 hrs by Western blot analysis; type: functional, cell-based
U-937 [46] = assay: Induction of apoptosis in human U937 cells assessed as cleavage of procaspase 3 at 10 to 30 uM after 24 hrs by Western blot analysis; type: functional, cell-based
U-937 [47] = assay: Cytotoxicity against human U937 cells assessed as reduction in cell number at 10 uM after 24 hrs by inverted phase-contrast microscopic analysis; type: functional, cell-based
U-937 [48] = assay: Induction of apoptosis in human U937 cells assessed as increase in apoptotic cells at 10 uM after 24 hrs by propidium iodide staining-based flow cytometric analysis (reference value: 2.3 /- 0.4%); type: functional
MOLT-3 [49] = assay: Induction of apoptosis in human MOLT3 cells assessed as increase in apoptotic cells at 10 uM after 24 hrs by propidium iodide staining-based flow cytometric analysis (reference value: 3.1 /- 0.7%); type: functional

CC(C)[C@H]1CC[C@H](C)C[C@@H]1O[C@@H]1O[C@H](CO[C@@H]2O[C@H](COC(=O)c3ccc(Br)cc3)[C@@H](OC(=O)c3ccc(Br)cc3)[C@H](O)[C@H]2O)[C@@H](O)[C@H](O)[C@H]1O
Activity (HL-60 [1]): inactive
Activity (MOLT-3 [2]): Active
Activity (U-937 [3]): Active
Activity (MOLT-3 [4]): Active
Activity (HL-60 [5]): Active
Activity (HL-60 [6]): inactive
Activity (MOLT-3 [7]): Dose-dependent effect
IC50 (MOLT-3 [7]): 12.6 µM
Activity (HL-60 [8]): Active
Activity (HL-60 [9]): Active
Activity (MOLT-3 [10]): Active
Activity (HL-60 [11]): inactive
Activity (HL-60 [12]): Active
Activity (MCF7 [13]): Active
Activity (U-937 [14]): Active
Activity (U-937 [15]): Active
Activity (HL-60 [16]): Active
Activity (HL-60 [17]): Active
Activity (U-937 [18]): Active
fold change (FC) (MOLT-3 [19]): >7
Activity (U-937 [20]): 23.2%
Activity (MOLT-3 [21]): Active
Activity (U-937 [22]): Dose-dependent effect
IC50 (U-937 [22]): 14.1 µM
Activity (U-937 [23]): Active
Activity (HL-60 [24]): Active
Activity (U-937 [25]): Active
Activity (HL-60 [26]): inactive
Activity (U-937 [27]): Active
Activity (U-937 [28]): Active
Activity (HL-60 [29]): Active
Activity (U-937 [30]): Active
Activity (MCF7 [31]): Dose-dependent effect
IC50 (MCF7 [31]): 16 µM
Activity (HL-60 [32]): Dose-dependent effect
IC50 (HL-60 [32]): 14.9 µM
fold change (FC) (HL-60 [33]): >7
Activity (HL-60 [34]): 56.9%
Activity (U-937 [35]): Active
Activity (U-937 [36]): Active
Activity (HL-60 [37]): Active
Activity (MOLT-3 [38]): Active
Activity (HL-60 [39]): Active
fold change (FC) (U-937 [40]): >7
Activity (MOLT-3 [41]): Active
Activity (U-937 [42]): inactive
Activity (HL-60 [43]): Active
Activity (HL-60 [44]): Active
Activity (HL-60 [45]): Active
Activity (U-937 [46]): Active
Activity (U-937 [47]): Active

CC(C)[C@H]1CC[C@H](C)C[C@@H]1O[C@H]1O[C@H](CO[C@@H]2O[C@H](COC(=O)c3ccc(Br)cc3)[C@@H](OC(=O)c3ccc(Br)cc3)[C@H](O)[C@H]2O)[C@@H](O)[C@H](O)[C@H]1O
Activity (MOLT-3 [2]): Active
Activity (MOLT-3 [4]): Active
Activity (MOLT-3 [7]): Dose-dependent effect
IC50 (MOLT-3 [7]): 5.8 µM
Activity (HL-60 [9]): Active
Activity (MOLT-3 [10]): Active
Activity (HL-60 [12]): Active
Activity (MCF7 [13]): Active
Activity (U-937 [22]): Dose-dependent effect
IC50 (U-937 [22]): 6.9 µM
Activity (U-937 [48]): 46%
Activity (HL-60 [29]): Active
Activity (U-937 [30]): Active
Activity (MCF7 [31]): Dose-dependent effect
IC50 (MCF7 [31]): 6.1 µM
Activity (HL-60 [32]): Dose-dependent effect
IC50 (HL-60 [32]): 7.3 µM
Activity (U-937 [35]): Active
Activity (U-937 [36]): Active
Activity (MOLT-3 [38]): Active
Activity (HL-60 [39]): Active
Activity (MOLT-3 [49]): 69.5%
Activity (U-937 [47]): Active
